In PubChem BioAssay AID256 (DTP/NCI, 2004):
“And” between values parts separate entries of the source, which are not always exact repeats. Identical values can stand only once. Toxic doses and inconclusive results are not listed. How the source made its calls: active means survival T/C of 150% or more; inactive means T/C below 125% in these data.

Test system: CD2F1 mice, L1210 leukemia ip, survival T/C
Assay: NCI In Vivo Anticancer Drug Screen. Data for tumor model L1210 Leukemia (intraperitoneal) in CD2F1 (CDF1) mice
Settings: higher = longer survival
How it was run: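 In this screen, transplantable tumors were grown in mice given either the compound or its vehicle. Results were expressed as the treated measurement relative to the control measurement.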

[1] = endpoint: mean survival time, dose: 100.0 mg/kg/injection, schedule: Q04DX002 (ip), vehicle: saline with Tween-80
[2] = endpoint: mean survival time, dose: 200.0 mg/kg/injection, schedule: Q04DX002 (ip), vehicle: saline with Tween-80
[3] = endpoint: mean survival time, dose: 400.0 mg/kg/injection, schedule: Q04DX002 (ip), vehicle: saline with Tween-80
[4] = endpoint: mean survival time, dose: 100.0 mg/kg/injection, schedule: Q01DX009 (ip), vehicle: saline with Tween-80
[5] = endpoint: mean survival time, dose: 200.0 mg/kg/injection, schedule: Q01DX009 (ip), vehicle: saline with Tween-80
[6] = endpoint: mean survival time, dose: 400.0 mg/kg/injection, schedule: Q01DX009 (ip), vehicle: saline with Tween-80
[7] = endpoint: mean survival time, dose: 50.0 mg/kg/injection, schedule: Q01DX009 (ip), vehicle: saline with Tween-80
[8] = endpoint: mean survival time, dose: 100.0 mg/kg/injection, schedule: Q04DX003 (ip), vehicle: saline with Tween-80
[9] = endpoint: mean survival time, dose: 200.0 mg/kg/injection, schedule: Q04DX003 (ip), vehicle: saline with Tween-80

Measured: T/C

NC(Cn1ccc(=O)c(O)c1)C(=O)O (stereo not drawn)
inactive: endpoint: median survival time, dose: 50.0 mg/kg/injection, schedule: Q01DX009 (ip), vehicle: saline 106 % of control | endpoint: median survival time, dose: 100.0 mg/kg/injection, schedule: Q01DX009 (ip), vehicle: saline 107 % of control | endpoint: median survival time, dose: 200.0 mg/kg/injection, schedule: Q01DX009 (ip), vehicle: saline 107 % of control | endpoint: median survival time, dose: 400.0 mg/kg/injection, schedule: Q01DX009 (ip), vehicle: saline 114 % of control

CCCCS(=O)(=O)CC(O)c1ccccc1 (stereo not drawn)
inactive: [1] 115 % of control | [2] 101 % of control | [3] 104 % of control

[Br][Pt+2][Br].[NH-]c1cccc(F)c1.[NH-]c1cccc(F)c1
inactive: endpoint: mean survival time, dose: 3.13 mg/kg/injection, schedule: Q04DX003 (ip), vehicle: distilled water + Tween-80 97 % of control | endpoint: mean survival time, dose: 6.25 mg/kg/injection, schedule: Q04DX003 (ip), vehicle: distilled water + Tween-80 103 % of control | endpoint: mean survival time, dose: 12.5 mg/kg/injection, schedule: Q04DX003 (ip), vehicle: distilled water + Tween-80 101 % of control | endpoint: mean survival time, dose: 25.0 mg/kg/injection, schedule: Q04DX003 (ip), vehicle: distilled water + Tween-80 104 % of control | endpoint: mean survival time, dose: 50.0 mg/kg/injection, schedule: Q04DX003 (ip), vehicle: distilled water + Tween-80 109 % of control | endpoint: mean survival time, dose: 100.0 mg/kg/injection, schedule: Q04DX003 (ip), vehicle: distilled water + Tween-80 107 % of control

CN(C)CCCNC/C=C\CNCCCN(C)C
inactive: endpoint: mean survival time, dose: 100.0 mg/kg/injection, schedule: Q04DX003 (ip), vehicle: saline 101 % of control | endpoint: mean survival time, dose: 200.0 mg/kg/injection, schedule: Q04DX003 (ip), vehicle: saline 101 % of control

CC(C)N1CCC1CO (stereo not drawn)
inactive: endpoint: mean survival time, dose: 25.0 mg/kg/injection, schedule: Q01DX009 (ip), vehicle: saline 96 % of control | endpoint: mean survival time, dose: 50.0 mg/kg/injection, schedule: Q01DX009 (ip), vehicle: saline 100 % of control | endpoint: mean survival time, dose: 100.0 mg/kg/injection, schedule: Q01DX009 (ip), vehicle: saline 94 % of control

Cc1cn(C2CC(O)C(CO)O2)c(=O)nc1N1CCSCC1 (stereo not drawn)
inactive: endpoint: median survival time, dose: 12.5 mg/kg/injection, schedule: Q01DX005 (ip), vehicle: distilled water + Tween-80 101 % of control | endpoint: median survival time, dose: 25.0 mg/kg/injection, schedule: Q01DX005 (ip), vehicle: distilled water + Tween-80 103 % of control | endpoint: median survival time, dose: 50.0 mg/kg/injection, schedule: Q01DX005 (ip), vehicle: distilled water + Tween-80 102 % of control | endpoint: median survival time, dose: 100.0 mg/kg/injection, schedule: Q01DX005 (ip), vehicle: distilled water + Tween-80 101 % of control | endpoint: median survival time, dose: 200.0 mg/kg/injection, schedule: Q01DX005 (ip), vehicle: distilled water + Tween-80 102 % of control

O=C(NCCCCC(Cl)C(=O)O)c1ccccc1 (stereo not drawn)
inactive: [4] 98 % of control | [5] 100 % of control | [6] 100 % of control

Cc1ccc2nc(-c3ccc([N+](=O)[O-])cc3)oc(=O)c2c1
inactive: [7] 93 % of control | [4] 97 % of control | [5] 93 % of control

CC(=[N-])CC(C)=O.CC(=[N-])CC(C)=O.[Cu+2]
inactive: endpoint: mean survival time, dose: 3.13 mg/kg/injection, schedule: Q01DX009 (ip), vehicle: saline with Tween-80 100 % of control | endpoint: mean survival time, dose: 6.25 mg/kg/injection, schedule: Q01DX009 (ip), vehicle: saline with Tween-80 95 % of control | endpoint: mean survival time, dose: 12.5 mg/kg/injection, schedule: Q01DX009 (ip), vehicle: saline with Tween-80 90 % of control

Cc1ccccc1CC(C)c1ccccc1 (stereo not drawn)
inactive: [7] 101 % of control | [4] 101 % of control | [8] 90 % of control | [5] 90 % of control | [9] 88 % of control

COc1cc(NC(=O)Nc2ccc(S(N)(=O)=O)cc2)c(Cl)c(OC)c1
inactive: [4] 95 % of control | [5] 95 % of control | [6] 104 % of control

CCOC1(OCC)C2C=CC1C(C#N)(C#N)C2(C#N)C#N
inactive: endpoint: mean survival time, dose: 75.0 mg/kg/injection, schedule: Q01DX001 (ip), vehicle: saline 103 % of control | endpoint: mean survival time, dose: 150.0 mg/kg/injection, schedule: Q01DX001 (ip), vehicle: saline 104 % of control

CC(=O)CC(=O)C(C)(C)C(C)=O
inactive: endpoint: mean survival time, dose: 100.0 mg/kg/injection, schedule: Q01DX001 (ip), vehicle: saline with Tween-80 98 % of control | endpoint: mean survival time, dose: 100.0 mg/kg/injection, schedule: Q01DX009 (ip), vehicle: saline sonified 97 % of control | [1] 117 % of control | endpoint: mean survival time, dose: 200.0 mg/kg/injection, schedule: Q01DX001 (ip), vehicle: saline with Tween-80 104 % of control | endpoint: mean survival time, dose: 200.0 mg/kg/injection, schedule: Q01DX009 (ip), vehicle: saline sonified 105 % of control | [2] 102 % of control | endpoint: mean survival time, dose: 400.0 mg/kg/injection, schedule: Q01DX001 (ip), vehicle: saline with Tween-80 101 % of control | endpoint: mean survival time, dose: 400.0 mg/kg/injection, schedule: Q01DX009 (ip), vehicle: saline sonified 100 % of control | [3] 98 % of control

Cc1ccc(-n2c(N)cc(=O)[nH]c2=S)nc1
inactive: [8] 95 % of control | [9] 100 % of control | endpoint: mean survival time, dose: 400.0 mg/kg/injection, schedule: Q04DX003 (ip), vehicle: saline with Tween-80 95 % of control

C=C(C)C1CCC2(C(=O)OC)CCC3(C)C(CCC4C5(C)CCC(OC6CCCCO6)C(C)(C)C5CCC43C)C12 (stereo not drawn)
inactive: endpoint: mean survival time, dose: 6.25 mg/kg/injection, schedule: Q04DX002 (ip), vehicle: saline with Tween-80 103 % of control | endpoint: mean survival time, dose: 12.5 mg/kg/injection, schedule: Q04DX002 (ip), vehicle: saline with Tween-80 95 % of control | endpoint: mean survival time, dose: 25.0 mg/kg/injection, schedule: Q04DX002 (ip), vehicle: saline with Tween-80 86 % of control

C=C1C2C(c3ccccc3)=CC(C1(C)C(Cl)Cl)C(C#N)(C#N)C2(C#N)C#N (stereo not drawn)
inactive: endpoint: mean survival time, dose: 50.0 mg/kg/injection, schedule: Q04DX002 (ip), vehicle: saline with Tween-80 96 % of control | [1] 108 % of control | [2] 100 % of control

C=CC(C)(C)n1cc(C2=C(O)C(=O)C(c3cn(C(C)(C)C=C)c4ccccc34)=C(O)C2=O)c2ccccc21
inactive: endpoint: mean survival time, dose: 2.5 mg/kg/injection, schedule: Q01DX009 (ip), vehicle: Klucel (hydroxypropylcellulose) (HPC) 97 % of control | endpoint: mean survival time, dose: 2.5 mg/kg/injection, schedule: Q01DX009 (ip), vehicle: carboxymethylcellulose (CMC) 100 % of control | endpoint: mean survival time, dose: 5.0 mg/kg/injection, schedule: Q01DX009 (ip), vehicle: Klucel (hydroxypropylcellulose) (HPC) 93 % of control | endpoint: mean survival time, dose: 5.0 mg/kg/injection, schedule: Q01DX009 (ip), vehicle: carboxymethylcellulose (CMC) 100 % of control | endpoint: mean survival time, dose: 9.0 mg/kg/injection, schedule: Q01DX009 (ip), vehicle: carboxymethylcellulose (CMC) 96 % of control | endpoint: mean survival time, dose: 10.0 mg/kg/injection, schedule: Q01DX009 (ip), vehicle: Klucel (hydroxypropylcellulose) (HPC) 91 % of control | endpoint: mean survival time, dose: 10.0 mg/kg/injection, schedule: Q01DX009 (ip), vehicle: carboxymethylcellulose (CMC) 98 % of control | endpoint: mean survival time, dose: 18.0 mg/kg/injection, schedule: Q01DX009 (ip), vehicle: carboxymethylcellulose (CMC) 98 % of control | endpoint: mean survival time, dose: 20.0 mg/kg/injection, schedule: Q01DX009 (ip), vehicle: Klucel (hydroxypropylcellulose) (HPC) 93 % of control | endpoint: mean survival time, dose: 20.0 mg/kg/injection, schedule: Q01DX009 (ip), vehicle: carboxymethylcellulose (CMC) 98 % of control | endpoint: mean survival time, dose: 26.0 mg/kg/injection, schedule: Q01DX009 (ip), vehicle: carboxymethylcellulose (CMC) 94 % of control | endpoint: mean survival time, dose: 40.0 mg/kg/injection, schedule: Q01DX009 (ip), vehicle: Klucel (hydroxypropylcellulose) (HPC) 93 % of control | endpoint: mean survival time, dose: 40.0 mg/kg/injection, schedule: Q01DX009 (ip), vehicle: carboxymethylcellulose (CMC) 93 % of control | endpoint: mean survival time, dose: 60.0 mg/kg/injection, schedule: Q01DX009 (ip), vehicle: carboxymethylcellulose (CMC) 100 % of control | endpoint: median survival time, dose: 5.0 mg/kg/injection, schedule: Q01DX009 (ip), vehicle: Klucel (hydroxypropylcellulose) (HPC) 101 % of control | endpoint: median survival time, dose: 10.0 mg/kg/injection, schedule: Q01DX009 (ip), vehicle: Klucel (hydroxypropylcellulose) (HPC) 100 % of control and 102 % of control | endpoint: median survival time, dose: 20.0 mg/kg/injection, schedule: Q01DX009 (ip), vehicle: Klucel (hydroxypropylcellulose) (HPC) 97 % of control and 100 % of control | endpoint: median survival time, dose: 40.0 mg/kg/injection, schedule: Q01DX009 (ip), vehicle: Klucel (hydroxypropylcellulose) (HPC) 115 % of control and 109 % of control
